Target: T1, FAP (FAP-positive HT-1080-FAP cells) (Homo sapiens, UniProt Q12884)
T1 construct: expressed in transfected cells; host or cells: HT-1080 human fibrosarcoma cells, stably transfected (HT-1080-FAP)
T1 sequence (Q12884 1-760): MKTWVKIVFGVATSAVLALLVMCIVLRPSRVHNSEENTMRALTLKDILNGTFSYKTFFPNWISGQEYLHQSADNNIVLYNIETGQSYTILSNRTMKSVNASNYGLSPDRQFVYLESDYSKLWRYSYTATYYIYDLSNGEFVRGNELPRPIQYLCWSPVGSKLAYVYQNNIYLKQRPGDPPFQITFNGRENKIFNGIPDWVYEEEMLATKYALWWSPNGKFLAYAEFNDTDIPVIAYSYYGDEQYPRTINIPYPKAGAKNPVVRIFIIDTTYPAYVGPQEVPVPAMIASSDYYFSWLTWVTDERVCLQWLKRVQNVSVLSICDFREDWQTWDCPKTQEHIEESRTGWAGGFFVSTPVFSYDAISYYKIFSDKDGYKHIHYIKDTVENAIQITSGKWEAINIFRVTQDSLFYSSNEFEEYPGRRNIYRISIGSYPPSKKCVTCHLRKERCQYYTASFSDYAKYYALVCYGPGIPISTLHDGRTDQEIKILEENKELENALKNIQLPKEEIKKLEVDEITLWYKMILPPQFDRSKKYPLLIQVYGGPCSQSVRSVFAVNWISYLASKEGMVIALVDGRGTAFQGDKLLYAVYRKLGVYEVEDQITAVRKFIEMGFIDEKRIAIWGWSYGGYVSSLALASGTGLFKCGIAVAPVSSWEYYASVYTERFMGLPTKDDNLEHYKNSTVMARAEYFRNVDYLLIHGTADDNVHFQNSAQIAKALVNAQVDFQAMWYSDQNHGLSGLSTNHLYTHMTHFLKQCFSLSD
Test: Competitive cell-binding assay against ^68Ga-FAPI-46
Conditions: competition with ^68Ga-FAPI-46, 60 min, read-out: 50% inhibitory concentration
Experimental: A human fibrosarcoma cell line was stably transfected with FAP (HT-1080-FAP) and cultured, as previously described ([15]). A human glioblastoma cell line (U87MG, from the Chinese National Infrastructure of Cell Line Resource) was cultured in Dulbecco modified Eagle medium (Thermo Fischer Scientific) supplemented with 10% fetal bovine serum (Thermo Fisher Scientific). HT-1080-FAP cells were seeded in 24-well plates using RPMI 1640 medium with 10% fetal bovine serum, and the medium was replaced with fresh medium without fetal bovine serum when the cells reached 80%–90% density. ^68Ga-FAPI-46, ^68Ga-DOTA-2P(FAPI)2, ^68Ga-DOTA-4P(FAPI)4, or ^68Ga-DOTA-4P(FAPI)4 with 11.3 nmol of unlabeled FAPI-46 (for the blocking experiment) were added to the 24-well plates and incubated for 60, 90, and 120 min. For the competitive cell-binding assay, a gradient concentration (5.6 × 10^−13 to 10^−5 M) of FAPI-46, DOTA-2P(FAPI)2, or DOTA-4P(FAPI)4 was added to the cells and incubated with ^68Ga-FAPI-46 for 60 min. […] The radioactivity (counts per minute) was determined with a γ-counter (WIZARD^2 2480; PerkinElmer Inc.). […] The 50% inhibitory concentrations were determined by fitting a nonlinear regression model to the data using Prism software, version 8 (GraphPad Software Inc.).

SMILES | IC50 [nM]
CN(CCCN1CCN(C(=O)COCCOCCOCCNC(=O)CCC(=O)NCCCC[C@H](NC(=O)CCC(=O)NCCOCCOCCOCC(=O)N2CCN(CCCN(C)c3ccc4nccc(C(=O)NCC(=O)N5CC(F)(F)C[C@H]5C#N)c4c3)CC2)C(=O)NCCCC[C@H](NC(=O)[C@H](CCCCNC(=O)CN2CCN(CC(=O)O)CCN(CC(=O)O)CCN(CC(=O)O)CC2)NC(=O)CCC(=O)NCCOCCOCCOCC(=O)N2CCN(CCCN(C)c3ccc4nccc(C(=O)NCC(=O)N5CC(F)(F)C[C@H]5C#N)c4c3)CC2)C(=O)NCCOCCOCCOCC(=O)N2CCN(CCCN(C)c3ccc4nccc(C(=O)NCC(=O)N5CC(F)(F)C[C@H]5C#N)c4c3)CC2)CC1)c1ccc2nccc(C(=O)NCC(=O)N3CC(F)(F)C[C@H]3C#N)c2c1 [DOTA-4P(FAPI)4] | 15.6
CN(CCCN1CCN(C(=O)CN2CCN(CC(=O)O)CCN(CC(=O)O)CCN(CC(=O)O)CC2)CC1)c1ccc2nccc(C(=O)NCC(=O)N3CC(F)(F)C[C@H]3C#N)c2c1 [FAPI-46, reference compound] | 11.4

Reference: article PMC10478824, “Development of FAPI Tetramers to Improve Tumor Uptake and Efficacy of FAPI Radioligand Therapy” (Journal of Nuclear Medicine, 2023)
